Series [1] is described as follows: In vitro drug release from PLGA NPs. In kind it is physicochemical. Here is the method: In vitro Drug Release. For the release studies, 1 mg each from all prepared NPs were dispersed in 1 ml of release medium (pH 7.4) each to form a suspension. Each suspension was in three replicates in 1.5 ml centrifuge tubes and incubated at 37° C. The release buffers were collected after centrifugation at 15,000 rpm for 30 min. The release buffers were replaced with fresh buffer at different periods and subjected to analysis using HPLC. The cumulative release of the model drug from each loaded NPs was plotted against time.

A short description of series [2]: Drug encapsulation (loading) efficiency of PLGA NPs. Particulars: in PLGA NPs. In kind it is physicochemical. The protocol: Drug Encapsulation Efficiency. To find the amount of P188 and NAC within the NPs, P188 was fluorescently modified (TAMRA-P188) and loaded into the NPs. Fluorescence intensity of TAMRA-P188 in the supernatant was quantified over time using a plate reader. NAC was measured with high-performance liquid chromatography (HPLC). The results were converted into concentrations, and the loading efficiency for P188 and NAC were 85% and 28%, respectively, and calculated using the following equation.

Series [3] has as its system brain endothelial cells (BECs). Briefly: Mitochondrial superoxide (MitoSox) in TNF-α stimulated brain endothelial cells. In kind it is cell-based, mouse. Conditions: BECs stimulated by TNF-a (10 ng/ml) for 4 hours, then treated. The protocol:
Next tested was the potential of reparative effects of two non-biologics. One is a triblock biocompatible polymer, known as poloxamers (P188), that was approved by FDA for numerous applications. […] The other compound is N-acetylcysteine (NAC), which is also an FDA-approved antioxidant that is associated with health benefits. […] Using a fluorophore (MitoSox) that preferentially binds to superoxide, the extent of oxidative stress in response to TNF-a were recorded and quantified. Oxidative stress is an important determinant of endothelial injury, which influences a number of cellular responses by activating several intracellular signaling cascades in endothelial cells, leading to the progression of vascular diseases. […] TNF-a induced a significant increase in oxidative stress and, if left untreated, the superoxide level persisted (FIG. 3B). […] This sequence of events may be engineered to accommodate short- and long-term beneficial responses. […]
Measurement of Mitochondrial Reactive Oxygen Species (ROS). Superoxide was measured using a MitoSoX™ Red mitochondrial superoxide indicator, according to the manufacturer's instructions. […] After washing three times with PBS, images were taken with a fluorescent microscope and fluorescence intensities were calculated using Nikon ND2 software.

Another series has as its system MMP-2. Description: MMP-2 enzyme activity assay (EnzChek) in cells exposed to microcavitation. The series is classed as cell-based, mouse. Particulars: microcavitation (5 blasts), pretreatment 2 h: doxycycline 20 mM, phenanthroline 0.5 mM. The protocol: (§1) MMPs activities assay, Fold change, and Permeability measurement: EnzChek MMP-2 & 9 Assay Kit were used for MMP-2 & 9 activity assays. Cells were cultured in endothelial cell complete media and divided into the following groups: control (no treatment), exposed (5 blasts), doxycycline (20 mM)+exposed (5 blasts), doxycycline (20 mM), and phenanthroline (0.5 mM, positive control). Before initiating experiments, cells were washed with PBS, and no serum media was applied. Dishes in the treatment groups were pretreated with doxycycline or phenanthroline for 2 h at 37° C. Cells were exposed to microcavitation and incubated at 37° C. for 1 h. All groups were homogenized with lysis buffer containing 0.1% Triton-X 100, and protein was estimated with Pierce BCA Protein Assay Kit. Equal amounts of protein from each sample were aliquoted in lysis buffer. Samples were then analyzed using a plate reader at excitation 495 nm and 515 nm to quantitate MMP-2 & 9 activities. Primary brain endothelial cells were grown under the conditions described above. At the end of all experimental conditions, RNA from the cells was extracted and used for PCR analysis of the MMP-2 & 9 gene expressions. Finally, the permeability of the brain endothelium model exposed to doxycycline, P188, or in combination of them both was measured.

The next series has as its system MMP-9. Description: MMP-9 enzyme activity assay (EnzChek) in cells exposed to microcavitation. The series is classed as cell-based, mouse. Conditions: microcavitation (5 blasts), pretreatment 2 h: doxycycline 20 mM, phenanthroline 0.5 mM. The protocol:
as §1

For the compound `CC(=O)N[C@@H](CS)C(=O)O` [NAC, N-acetylcysteine], the “time within which most of the release was achieved” value in series [1] is not above 24 h. The compound also came in with a release in series [1] (in 7 days) of approximately 100%. For the same compound, the “time required to reach a half of the maximum release” value in series [1] (pH 7.4, 37° C., linear regression) is approximately 7.7 h. Further, in series [2], the loading efficiency turned out to be 28%. In addition, the “superoxide level (oxidative stress)” value in series [3] is “noticeable attenuation of superoxide”.
In the case of `c1cnc2c(c1)ccc1cccnc12` [phenanthroline], the MMP-2 enzymatic activity entry with MMP-2 is “inhibited”. Also, the MMP-9 enzymatic activity result in the series on MMP-9 is “inhibited”.
